Source: patent US20240108601A1, “TREATMENT OF MENTAL DISORDERS” (GH Research Ireland Limited, priority 2022, published 2024)
“And” between values parts separate entries of the source, which are not always exact repeats. Identical values can stand only once.

Tested on: patients with treatment-resistant major depressive disorder (TRD)
Assay: Phase 1/2 clinical trial of inhaled 5-MeO-DMT in treatment-resistant depression
Details: for MADRS Concentration Difficulties % improvement / MADRS Concentration Difficulties improvement / MADRS Inability to Feel % improvement / MADRS Inability to Feel improvement / MADRS Inner Tension % improvement / MADRS Inner Tension improvement / MADRS Lassitude % improvement / MADRS Lassitude improvement / MADRS Pessimistic Thoughts % improvement / MADRS Pessimistic Thoughts improvement / MADRS Suicidal Thoughts % improvement / MADRS Suicidal Thoughts improvement / MADRS Suicidal Thoughts aggregated score / MADRS Inner Tension aggregated score / MADRS Concentration Difficulties aggregated score / MADRS Inability to Feel aggregated score / MADRS Lassitude aggregated score / MADRS Pessimistic Thoughts aggregated score / BPRS Anxiety % improvement / BPRS Anxiety improvement / BPRS Blunted Affect % improvement / BPRS Blunted Affect improvement / BPRS Emotional Withdrawal % improvement / BPRS Emotional Withdrawal improvement / BPRS Guilt Feelings % improvement / BPRS Guilt Feelings improvement / BPRS Tension % improvement / BPRS Tension improvement / BPRS Blunted Affect aggregated score / BPRS Emotional Withdrawal aggregated score / BPRS Tension aggregated score / BPRS Guilt Feelings aggregated score / BPRS Anxiety aggregated score / MADRS Reduced Sleep % improvement / MADRS Reduced Sleep improvement / MADRS Reduced Sleep aggregated score: 12 mg n=4; for MADRS Suicidal Thoughts aggregated score: baseline 8; for MADRS Inner Tension aggregated score / BPRS Emotional Withdrawal aggregated score: baseline 13; for MADRS Concentration Difficulties aggregated score / MADRS Inability to Feel aggregated score / MADRS Lassitude aggregated score / MADRS Pessimistic Thoughts aggregated score: baseline 16; for BPRS Blunted Affect aggregated score: baseline 11; for BPRS Tension aggregated score: baseline 14; for BPRS Guilt Feelings aggregated score: baseline 18; for BPRS Anxiety aggregated score: baseline 25; for MADRS Reduced Sleep aggregated score: baseline 12
Protocol: Patients were assigned to different groups. In the context of the present invention, the group who received a single, 12 mg dose and the group who underwent an intra-day individualized dosing regimen (IDR) that allowed for multiple, escalating doses (6 mg, 12 mg and 18 mg) within a single day, driven by the intensity of the patient-reported psychedelic experience are of interest.
The data gathered include the assessment of the treated patients against several scales including the Montgomery Åsberg Depression Rating Scale (MADRS) and the Brief Psychiatric Rating Scale (BPRS).
This trial was designed in two parts. Part A was an open-label, single-arm, single-dose Phase 1 trial with two dose levels (12 mg (n=4) and 18 mg (n=4)). […] The primary endpoint of Part B was to assess the effects on the severity of depression, as assessed by the proportion of patients in remission on day seven after dosing, defined as a MADRS total score of less than or equal to 10.

For `COc1ccc2[nH]cc(CCN(C)C)c2c1` [5-MeO-DMT], the “Patients with MADRS remission (total score ≤10)” value (“Patients with MADRS remission” for short) (12 mg group n=4, day seven) was 50%, the “Mean MADRS change from baseline” value (12 mg group, day seven) was −21.0 and the “Mean MADRS change from baseline, percent” value (12 mg group, day seven) was −65%. The “MADRS Concentration Difficulties % improvement” value (2 h) was 56% and 56.25%, the “MADRS Concentration Difficulties improvement” value (2 h) was 9 points and the “MADRS Inability to Feel % improvement” value (2 h) was 44% and 43.75%. The “MADRS Inability to Feel improvement” value (2 h) was 7 points, the “MADRS Inner Tension % improvement” value (2 h) was 85% and 84.62% and the “MADRS Inner Tension improvement” value (2 h) was 11 points. The “MADRS Lassitude % improvement” value (2 h) was 38% and 37.50%, the “MADRS Lassitude improvement” value (2 h) was 6 points and the “MADRS Pessimistic Thoughts % improvement” value (2 h) was 50%. For the same molecule, the “MADRS Pessimistic Thoughts improvement” value (2 h) was 8 points, the “MADRS Suicidal Thoughts % improvement” value (2 h) was 63% and 62.50% and the “MADRS Suicidal Thoughts improvement” value (2 h) was 5 points. The “MADRS Suicidal Thoughts aggregated score” value (2 h) was 3, the “MADRS Inner Tension aggregated score” value (2 h) was 2 and the “MADRS Concentration Difficulties aggregated score” value (2 h) was 7. For the same molecule, the “MADRS Inability to Feel aggregated score” value (2 h) was 9, the “MADRS Lassitude aggregated score” value (2 h) was 10 and the “MADRS Pessimistic Thoughts aggregated score” value (2 h) was 8. For the same molecule, the “BPRS Anxiety % improvement” value (3 h) was 56%, the “BPRS Anxiety improvement” value (3 h) was 14 points and the “BPRS Blunted Affect % improvement” value (3 h) was 27% and 27.27%. For the same molecule, the “BPRS Blunted Affect improvement” value (3 h) was 3 points, the “BPRS Emotional Withdrawal % improvement” value (3 h) was 15% and 15.38% and the “BPRS Emotional Withdrawal improvement” value (3 h) was 2 points. For the same molecule, the “BPRS Guilt Feelings % improvement” value (3 h) was 50%, the “BPRS Guilt Feelings improvement” value (3 h) was 9 points and the “BPRS Tension % improvement” value (3 h) was 36% and 35.71%. For the same molecule, the “BPRS Tension improvement” value (3 h) was 5 points, the “BPRS Blunted Affect aggregated score” value (3 h) was 8 and the “BPRS Emotional Withdrawal aggregated score” value (3 h) was 11. The “BPRS Tension aggregated score” value (3 h) was 9, the “BPRS Guilt Feelings aggregated score” value (3 h) was 9 and the “BPRS Anxiety aggregated score” value (3 h) was 11. The “BPRS Anxiety % improvement” value (day 1) was 76%, the “BPRS Anxiety improvement” value (day 1) was 19 points and the “BPRS Blunted Affect % improvement” value (day 1) was 45% and 45.45%. The “BPRS Blunted Affect improvement” value (day 1) was 5 points, the “BPRS Emotional Withdrawal % improvement” value (day 1) was 38% and 38.46% and the “BPRS Emotional Withdrawal improvement” value (day 1) was 5 points. The “BPRS Guilt Feelings % improvement” value (day 1) was 72% and 72.22%, the “BPRS Guilt Feelings improvement” value (day 1) was 13 points and the “BPRS Tension % improvement” value (day 1) was 57% and 57.14%. For the same molecule, the “BPRS Tension improvement” value (day 1) was 8 points, the “MADRS Concentration Difficulties % improvement” value (day 1) was 88% and 87.50% and the “MADRS Concentration Difficulties improvement” value (day 1) was 14 points. The “MADRS Inability to Feel % improvement” value (day 1) was 94% and 93.75%, the “MADRS Inability to Feel improvement” value (day 1) was 15 points and the “MADRS Inner Tension % improvement” value (day 1) was 77% and 76.92%. For the same molecule, the “MADRS Inner Tension improvement” value (day 1) was 10 points, the “MADRS Lassitude % improvement” value (day 1) was 100% and the “MADRS Lassitude improvement” value (day 1) was 16 points. For the same molecule, the “MADRS Pessimistic Thoughts % improvement” value (day 1) was 56% and 56.25%, the “MADRS Pessimistic Thoughts improvement” value (day 1) was 9 points and the “MADRS Reduced Sleep % improvement” value (day 1) was 17% and 16.67%. The “MADRS Reduced Sleep improvement” value (day 1) was 2 points, the “MADRS Suicidal Thoughts % improvement” value (day 1) was 38% and 37.50% and the “MADRS Suicidal Thoughts improvement” value (day 1) was 3 points. The “MADRS Suicidal Thoughts aggregated score” value (day 1) was 5, the “BPRS Blunted Affect aggregated score” value (day 1) was 6 and the “MADRS Reduced Sleep aggregated score” value (day 1) was 10. The “BPRS Emotional Withdrawal aggregated score” value (day 1) was 8, the “MADRS Inner Tension aggregated score” value (day 1) was 3 and the “BPRS Tension aggregated score” value (day 1) was 6. The “MADRS Concentration Difficulties aggregated score” value (day 1) was 2, the “MADRS Inability to Feel aggregated score” value (day 1) was 1 and the “MADRS Lassitude aggregated score” value (day 1) was 0. The “MADRS Pessimistic Thoughts aggregated score” value (day 1) was 7, the “BPRS Guilt Feelings aggregated score” value (day 1) was 5 and the “BPRS Anxiety aggregated score” value (day 1) was 6. The “BPRS Anxiety % improvement” value (day 7) was 76%, the “BPRS Anxiety improvement” value (day 7) was 19 points and the “BPRS Blunted Affect % improvement” value (day 7) was 55% and 54.55%. For the same molecule, the “BPRS Blunted Affect improvement” value (day 7) was 6 points, the “BPRS Emotional Withdrawal % improvement” value (day 7) was 54% and 53.85% and the “BPRS Emotional Withdrawal improvement” value (day 7) was 7 points. The “BPRS Guilt Feelings % improvement” value (day 7) was 72% and 72.22%, the “BPRS Guilt Feelings improvement” value (day 7) was 13 points and the “BPRS Tension % improvement” value (day 7) was 57% and 57.14%. The “BPRS Tension improvement” value (day 7) was 8 points, the “MADRS Concentration Difficulties % improvement” value (day 7) was 81% and 81.25% and the “MADRS Concentration Difficulties improvement” value (day 7) was 13 points. The “MADRS Inability to Feel % improvement” value (day 7) was 94% and 93.75%, the “MADRS Inability to Feel improvement” value (day 7) was 15 points and the “MADRS Inner Tension % improvement” value (day 7) was 62% and 61.54%. For the same molecule, the “MADRS Inner Tension improvement” value (day 7) was 8 points, the “MADRS Lassitude % improvement” value (day 7) was 81% and 81.25% and the “MADRS Lassitude improvement” value (day 7) was 13 points. For the same molecule, the “MADRS Pessimistic Thoughts % improvement” value (day 7) was 50%, the “MADRS Pessimistic Thoughts improvement” value (day 7) was 8 points and the “MADRS Reduced Sleep % improvement” value (day 7) was 50%. For the same molecule, the “MADRS Reduced Sleep improvement” value (day 7) was 6 points, the “MADRS Suicidal Thoughts % improvement” value (day 7) was 13% and 12.50% and the “MADRS Suicidal Thoughts improvement” value (day 7) was 1 points. For the same molecule, the “MADRS Suicidal Thoughts aggregated score” value (day 7) was 7, the “BPRS Blunted Affect aggregated score” value (day 7) was 5 and the “MADRS Reduced Sleep aggregated score” value (day 7) was 6. The “BPRS Emotional Withdrawal aggregated score” value (day 7) was 6, the “MADRS Inner Tension aggregated score” value (day 7) was 5 and the “BPRS Tension aggregated score” value (day 7) was 6. The “MADRS Concentration Difficulties aggregated score” value (day 7) was 3, the “MADRS Inability to Feel aggregated score” value (day 7) was 1 and the “MADRS Lassitude aggregated score” value (day 7) was 3. The “MADRS Pessimistic Thoughts aggregated score” value (day 7) was 8, the “BPRS Guilt Feelings aggregated score” value (day 7) was 5 and the “BPRS Anxiety aggregated score” value (day 7) was 6. For the same molecule, the “Further patients with MADRS clinical response” value (18 mg group n=4, day seven) was 25%, the “Patients with MADRS remission” value (18 mg group n=4, day seven) was 25% and the “Mean MADRS change from baseline” value (18 mg group, day seven) was −12.8. For the same molecule, the “Mean MADRS change from baseline, percent” value (18 mg group, day seven) was −41% and the “Patients with MADRS remission” value (IDR (Part B) n=8, day seven, p<0.0001) was 87.5%.
